Key:
C57BL/6J mice [1] = assay: Body and visceral fat-pad weights of mice fed high-fat test diets (LJ-2529 study); format: in vivo; settings: 14 weeks; for decrease of daily food intake: supplemented high-fat diet
Procedure: The obesity-inducing control diet used in the test was high-fat diet (HFD: 40% fat calorie, 17 g lard+3% corn oil/100 g diet). Diets supplemented with LJ-2529 compound or piperine had the same composition as HFD, except that LJ-2529 was included at 0.05%.
5-week-old male C57BL/6J mice (Orient, Korea) were accustomed to the laboratory environment for 1 week while feeding solid feed. […] The diet was given between 10 and 11 a.m. every day together with water. Food intake was measured every day and body weight was measured once a week. In order to avoid transient body weight increase after feed intake, body weight was measured 2 hours after removing the feed. After fasting the test animal for at least 12 hours and anesthetizing with diethyl ether, blood, liver and visceral fat (epididymal fat, perirenal fat, mesenteric fat and retroperitoneal fat) were taken and weighed after washing with 0.1M PBS (pH 7.4). Blood taken from the abdominal aorta was centrifuged at 1000×g for 15 minutes for the separation of plasma.

[2] = test system: 3T3-L1 cells as preadipocytes; assay: Inhibition of adipocyte differentiation, Oil-Red O staining; format: cell-based, Mouse; settings: treated every other day from day 0 of differentiation, 14 days culture, different concentrations
Procedure: Mouse adipocyte line (3T3-L1) was used to evaluate effects of various piperine-based compounds on adipocyte differentiation and growth. 3T3-L1 cells as preadipocytes were dispensed on a 12-well plate, and cultured in a 5% CO2 incubator using DMEM medium supplemented with 1% penicillin-streptomycin, 1% non-essential amino acids, and 10% FBS. The cultured 3T3-L1 cells were made into differentiated adipocytes by being cultured for […] in a medium containing 0.5 mM […], 1 μM dexamethasone (MDI), and 1 μg/mL insulin, and then differentiated into mature adipocytes by being further cultured in a medium 1 μg/mL insulin. After that, they were further cultured for 10 days while changing the DMEM culture liquid every other day to obtain fully differentiated adipocytes.
The culture liquid was treated with 13 new compounds with different concentrations every other day from day 0 when DMI was added to the 3T3-L1 cells for differentiation. Derivative compounds were dissolved in DMSO before the use thereof, and a negative control group added with only DMSO was included in the experiment.
After the culturing for a total of 14 days, the culture liquids were removed when the cells were fully differentiated, and fat spheres contained in the differentiated adipocytes were stained. For this, the cells were washed 2 times with phosphate buffered saline (PBS), immobilized in 10% buffered neutral formalin for 1 hour, washed again once with PBS, stained for 1 hour by adding 1 mL of Oil-Red-O, which specifically stains fats red, to the 12-well plate, and then washed 2 times with distilled water. In order to measure the level of triglyceride contained in the differentiated 3T3-L1 cells, the stained cells were dissolved in 1 mL of iso-butanol and the OD value was measured at 600 nm.

C57BL/6J mice [3] = assay: Oral glucose tolerance test in mice fed test diets; format: in vivo; settings: 8 weeks of diet
Procedure: After 8 weeks of experimental diet, the oral glucose tolerance test was performed on all groups. After 6 hours of fasting, the mice were orally administered with glucose (2 g glucose/10 ml of distilled water/kg body weight). Before the oral administration of glucose, at 15, 30, 60, and 120 min after the administration of glucose, blood samples were taken from the tail cut (by removing the distal 1 cm of the tail) and blood glucose concentrations were measured using a blood glucose monitoring device.

C57BL/6J mice [4] = assay: Liver weight and lipid level in liver tissues of mice fed test diets; format: in vivo; settings: 0.05% in high-fat diet, 10 weeks
Procedure: (§1) 5-week-old male C57BL/6J mice (Orient, Korea) were accustomed to the laboratory environment for 1 week while feeding solid feed. Then, they were randomly divided into normal diet group, high-fat diet control group and test group of 3 types and control drug group of 2 types. They were bred for a total of 10 weeks (n=8/group). The diet was given between 10 and 11 a.m. every day together with water. Diet intake was measured every day and body weight was measured every week. In order to avoid transient body weight increase after feed intake, body weight was measured 2 hours after removing the feed. After fasting the test animal for at least 12 hours and anesthetizing with diethyl ether, blood, liver and visceral fat (epididymal fat, perirenal fat, mesenteric fat and retroperitoneal fat) were taken and weighed after washing with 0.1 M PBS (pH 7.4). Blood taken from the abdominal aorta was centrifuged at 1000×g for 15 minutes to separate the serum.
Lipids were extracted from the liver tissue according to Folch et al.'s method Folch J et al., J Biol. Chem. 226: 497-509 (1957)). After adding 1 mL of distilled water to 0.25 g of liver tissue, the liver tissue was homogenized using a Polytron homogenizer (IKA-Werke GmbH & Co., Ultra-Turrax, Staufen, Germany). After adding 5 mL of chloroform:methanol solution (2:1, v/v) to the homogenate and mixing well, the mixture was centrifuged at 1000×g for 10 minutes. After adding 2 mL of chloroform:methanol solution (2:1, v/v) again to the supernatant, the same procedure was repeated to completely separate the lipid components of the liver. After adding 3 mL of chloroform:methanl:0.05% CaCl2 (3:48:47, v/v/v) solution to the remaining pellets and mixing well for 1 minute, followed by centrifugation at 1000×g for 10 minutes, the resulting pellets were completely dried with nitrogen gas. The dried lipids were dissolved in 1 mL of methanol and then analyzed.
The same kit (Bio Clinical System) as that used for the plasma analysis was used to measure the triglyceride and cholesterol levels of the liver tissue.

C57BL/6J mice [5] = assay: Biochemical analysis of blood (plasma lipids, ALT, AST) of mice fed test diets; format: in vivo; settings: 0.05% in high-fat diet, 10 weeks
Procedure: as §1
After 10 weeks of breeding, total cholesterol, triglyceride and glucose levels in the plasma and lipid levels in the liver tissue were measured as follows. Total cholesterol, triglyceride, free fatty acid and glucose levels in the plasma were measured twice for each using a commercially available kit (Bio Clinical System). The activity of ALT (alanine aminotransferase) and AST (aspartate aminotransferase) used as liver function indicator were measured twice for each using a commercially available kit (Bio Clinical System, Korea).

C57BL/6J mice [6] = assay: Body weight and visceral fat weight of mice fed high-fat test diets (LJ-2498 study); format: in vivo; settings: 0.05% in high-fat diet, 10 weeks
Procedure: The obesity-inducing diet used in this example was high-fat diet (HFD: 40% fat calorie, 17 g lard+3% corn oil/100 g diet). LJ-2498 chemical (JL-2498) or piperine (Pin)-containing diet had the same composition as HFD, except that LJ-2498 chemical was included at 0.05%. As control drugs, metformin (Metf) as a diabetic treatment in a level of 0.1% and sibutramine as an obesity treatment in a level of 0.1% were added to a high-fat diet. A normal diet group (Chow) was fed with commercial rodent feedstuff.
as §1

## O=c1[nH]c2ccc(/N=C/c3c(Br)ccc4c3OCO4)cc2[nH]1 [LJ-2529]
C57BL/6J mice [1]; 0.05% in high-fat diet
  decrease of FER (feed efficiency ratio) compared with HFD: 60%
  decrease of body weight gain as compared to HFD: 60%
  epididymal fat-pad weight as compared to HFD: significantly reduced
  mesenteric fat-pad weight as compared to HFD: significantly reduced
  perirenal fat-pad weight as compared to HFD: significantly reduced
  retroperitoneal fat-pad weight as compared to HFD: significantly reduced
C57BL/6J mice [1]; 0.05% in high-fat diet, P<0.001
  reduction of total visceral fat weight versus HFD: 15%
C57BL/6J mice [1]
  decrease of daily food intake: 24%
[2]
  differentiation of the preadipocytes 3T3L1: reduced the differentiation of the preadipocytes 3T3L1 in a concentration-dependent manner

## COc1ccc(/C=C/C=C/C(=O)N2CCCCC2)cc1OC [LJ-2491, (2E,4E)-5-(3,4-dimethoxy-phenyl)-1-(piperidin-1-yl) penta-2,4-dien-1-one]
[2]
  differentiation of the preadipocytes 3T3L1: reduced the differentiation of the preadipocytes 3T3L1 in a concentration-dependent manner

## O=C(/C=C/C=C/c1ccc2c(c1)OCO2)N1CCCCC1 [piperine, Piperine]
C57BL/6J mice [1]; piperine-supplemented high-fat diet
  body weight gain change (signed) versus HFD: −48%
C57BL/6J mice [1]
  decrease of daily food intake: 27%

## CC(=O)OC/C=C/c1ccc2c(c1)OCO2 [LJ-2196, (E)-3-(benzo[d][1,3]dioxo-5-yl)allyl acetate]
[2]
  differentiation of the preadipocytes 3T3L1: reduced the differentiation of the preadipocytes 3T3L1 in a concentration-dependent manner

## COc1cc(/C=C/C=C/C(=O)N2CCCCC2)cc(OC)c1 [LJ-2492, (2E,4E)-5-(3,5-dimethoxy-phenyl)-1-(piperidin-1-yl) penta-2,4-dien-1-one]
[2]
  differentiation of the preadipocytes 3T3L1: reduced the differentiation of the preadipocytes 3T3L1 in a concentration-dependent manner

## C(=N\c1ccccc1)/c1ccc2c(c1)OCO2 [LJ-2477, (E)-N-(benzo[d][1,3]dioxol-5-ylmethylene)aniline]
[2]
  differentiation of the preadipocytes 3T3L1: reduced the differentiation of the preadipocytes 3T3L1 in a concentration-dependent manner

## Cc1ccc(C)c(/C=C/C=C/C(=O)N2CCCCC2)c1 [LJ-2497, Trans-(2E,4E)-5-(2,5-dimethylphenyl)-1-(piperidin-1-yl) penta-2,4-dien-1-one]
[2]
  differentiation of the preadipocytes 3T3L1: reduced the differentiation of the preadipocytes 3T3L1 in a concentration-dependent manner

## S=c1[nH]c2ccc(/N=C/c3c(Br)ccc4c3OCO4)cc2[nH]1 [SKKU-S-02]
[2]
  differentiation of the preadipocytes 3T3L1: reduced the differentiation of the preadipocytes 3T3L1 in a concentration-dependent manner

## O=C(/C=C/C=C/c1ccc2c(c1)OCO2)N1CCCC1 [LJ-2487, (2E,4E)-5-(benzo[d][1,3]dioxol-5-yl)-1-(pyrrolidin-1-yl)penta-2,4-dien-1-one]
[2]
  differentiation of the preadipocytes 3T3L1: reduced the differentiation of the preadipocytes 3T3L1 in a concentration-dependent manner

## COc1ccc(/C=C/C=C/C(=O)N2CCCCC2)c(OC)c1 [LJ-2490, (2E,4E)-5-(2,4-dimethoxy-phenyl)-1-(piperidin-1-yl) penta-2,4-dien-1-one]
[2]
  differentiation of the preadipocytes 3T3L1: reduced the differentiation of the preadipocytes 3T3L1 in a concentration-dependent manner

## COc1ccc(OC)c(/C=C/C=C/C(=O)N2CCCCC2)c1 [LJ-2488, (2E,4E)-5-(2,5-dimethoxy-phenyl)-1-(piperidin-1-yl) penta-2,4-dien-1-one]
[2]
  differentiation of the preadipocytes 3T3L1: reduced the differentiation of the preadipocytes 3T3L1 in a concentration-dependent manner

## COc1cccc(/C=C/C=C/C(=O)N2CCCCC2)c1OC [LJ-2489, (2E,4E)-5-(2,3-dimethoxy-phenyl)-1-(piperidin-1-yl) penta-2,4-dien-1-one]
[2]
  differentiation of the preadipocytes 3T3L1: reduced the differentiation of the preadipocytes 3T3L1 in a concentration-dependent manner
C57BL/6J mice [3]; 2 g glucose/kg oral
  reduction of area under the curve (ACU) for blood glucose concentrations as compared with HFD: 17%

## Cc1ccc(C)c(/C=C/C=C\C(=O)N2CCCCC2)c1 [LJ-2498, Cis-(2E,4E)-5-(2,5-dimethyl-phenyl)-1-(piperidin-1-yl) penta-2,4-dien-1-one]
C57BL/6J mice [4]
  decrease of liver weight compared to HFD: 23%
  decreased level of cholesterol in liver tissue as compared to HFD: 41%
  decreased level of triglyceride in liver tissue as compared to HFD: 29%
C57BL/6J mice [4]; images
  liver tissue appearance as compared to HFD: darker and smaller liver tissue
C57BL/6J mice [5]
  decreased plasma activity of ALT as compared to HFD: 27%
  decreased plasma activity of AST as compared to HFD: 15%
  lower plasma level of free fatty acid as compared to HFD: 25%
  lower plasma level of total cholesterol as compared to HFD: 20%
  lower plasma level of triglyceride as compared to HFD: 21%
[2]
  differentiation of the preadipocytes 3T3L1: reduced the differentiation of the preadipocytes 3T3L1 in a concentration-dependent manner
C57BL/6J mice [3]
  insulin resistance improving effect versus control drugs metformin and sibutramine: more excellent than those of control drugs
C57BL/6J mice [3]; 2 g glucose/kg, 15, 30, 60, 120 min
  blood glucose concentration after oral glucose as compared with HFD: further reduced over all the time zones
C57BL/6J mice [3]; 6 hours fasting
  reduction of fasting blood glucose as compared with HFD: 20%
C57BL/6J mice [6]
  epididymal fat weight per body weight as compared to HFD: significantly lower
  lower accumulated body weight gain as compared to HFD: 23%
  lower total visceral fat weight compared to HFD: 28%
  mesenteric fat weight per body weight as compared to HFD: significantly lower
  perirenal fat weight per body weight as compared to HFD: significantly lower
  retroperitoneal fat weight per body weight as compared to HFD: significantly lower
  visceral fat weight as compared to HFD group: significantly lower

## O=c1[nH]c2ccc(/N=C/c3cc4c(cc3Br)OCO4)cc2[nH]1 [LJ-2527]
[2]
  differentiation of the preadipocytes 3T3L1: reduced the differentiation of the preadipocytes 3T3L1 in a concentration-dependent manner

From patent publication US9321751B2, “Piperine derivatives and uses thereof” (INDUSTRY-ACADEMIC COOPERATION FOUNDATION, YONSEI UNIVERSITY, priority 2012, dated 2016)
